This note sets out measurements from ChEMBL document CHEMBL5649169 (ChemMedChem, 2018).

The target of experiment [1] is Transducin beta-like protein 3 (Homo sapiens) (UniProt Q12788).
Experiment [2] has as its target Polyadenylate-binding protein 4 (Homo sapiens) (UniProt Q13310).
The target of experiment [3] is Programmed cell death protein 2-like (Homo sapiens) (UniProt Q9BRP1).
Experiment [4] deals with Sec1 family domain-containing protein 1 (Homo sapiens) (UniProt Q8WVM8).
Experiment [5] concerns the target WASH complex subunit 4 (Homo sapiens) (UniProt Q2M389).
Experiment [6] concerns the target Small ribosomal subunit protein eS1 (Homo sapiens) (UniProt P61247).
In experiment [7] the target is Inositol 1,4,5-trisphosphate-gated calcium channel ITPR1 (Homo sapiens) (UniProt Q14643).
Experiment [8] deals with Macrophage-stimulating protein receptor (Homo sapiens) (UniProt Q04912).
Experiment [9] addresses Nuclear factor NF-kappa-B p105 subunit (Homo sapiens) (UniProt P19838).
The target of experiment [10] is DNA polymerase delta subunit 3 (Homo sapiens) (UniProt Q15054).
Experiment [11] concerns the target Microfibrillar-associated protein 1 (Homo sapiens) (UniProt P55081).
For experiment [12], the target named is Nucleolar RNA helicase 2 (Homo sapiens) (UniProt Q9NR30).
Experiment [13] addresses Cullin-4B (Homo sapiens) (UniProt Q13620).
Experiment [14] concerns the target Large ribosomal subunit protein eL19 (Homo sapiens) (UniProt P84098).
In experiment [15] the target is Small ribosomal subunit protein uS2 (Homo sapiens) (UniProt P08865).
In experiment [16] the target is BAG family molecular chaperone regulator 2 (Homo sapiens) (UniProt O95816).
The species named for experiment [17] is Homo sapiens.
Experiment [18] has as its target Cyclin-I (Homo sapiens) (UniProt Q14094).
Experiment [19] has as its target RNA polymerase-associated protein CTR9 homolog (Homo sapiens) (UniProt Q6PD62).
In experiment [20] the target is Heterogeneous nuclear ribonucleoprotein D-like (Homo sapiens) (UniProt O14979).
Experiment [21] addresses RNA-binding protein 14 (Homo sapiens) (UniProt Q96PK6).
Experiment [22] has as its target Pleckstrin homology domain-containing family G member 3 (Homo sapiens) (UniProt A1L390).
Experiment [23] deals with AP-1 complex subunit sigma-1A (Homo sapiens) (UniProt P61966).
Experiment [24] is filed under the species Homo sapiens. The source holds these as a separate data set.
For experiment [25], the target named is Bone morphogenetic protein receptor type-1A (Homo sapiens) (UniProt P36894).
Experiment [26] addresses Ubiquitin carboxyl-terminal hydrolase 9X (Homo sapiens) (UniProt Q93008).
Experiment [27] addresses Protein YIF1A (Homo sapiens) (UniProt O95070).
Experiment [28] has as its target Small ribosomal subunit protein mS34 (Homo sapiens) (UniProt P82930).
Experiment [29] addresses Ubiquitin-protein ligase E3A (Homo sapiens) (UniProt Q05086).
Experiment [30] concerns the target Transmembrane protein 94 (Homo sapiens) (UniProt Q12767).
For experiment [31], the target named is HLA class I histocompatibility antigen, B alpha chain (Homo sapiens) (UniProt P01889).
Experiment [32] deals with PAS domain-containing serine/threonine-protein kinase (Homo sapiens) (UniProt Q96RG2).
The target of experiment [33] is Ribosome biogenesis protein WDR12 (Homo sapiens) (UniProt Q9GZL7).
Experiment [34] addresses Kinesin-like protein KIF2C (Homo sapiens) (UniProt Q99661).
In experiment [35] the target is Replication factor C subunit 1 (Homo sapiens) (UniProt P35251).
Experiment [36] deals with NADH dehydrogenase [ubiquinone] flavoprotein 2, mitochondrial (Homo sapiens) (UniProt P19404).
The target in experiment [37] is H/ACA ribonucleoprotein complex subunit 1 (Homo sapiens) (UniProt Q9NY12).
Experiment [38] concerns the target 14-3-3 protein sigma (Homo sapiens) (UniProt P31947).
The target in experiment [39] is Translation initiation factor eIF2B subunit epsilon (Homo sapiens) (UniProt Q13144).
The target of experiment [40] is Hypoxia up-regulated protein 1 (Homo sapiens) (UniProt Q9Y4L1).
The target of experiment [41] is Tubulin beta-2B chain (Homo sapiens) (UniProt Q9BVA1).
Experiment [42] addresses Conserved oligomeric Golgi complex subunit 6 (Homo sapiens) (UniProt Q9Y2V7).
For experiment [43], the target named is Dynamin-like GTPase OPA1, mitochondrial (Homo sapiens) (UniProt O60313).
In experiment [44] the target is NADH dehydrogenase [ubiquinone] 1 alpha subcomplex subunit 13 (Homo sapiens) (UniProt Q9P0J0).
Experiment [45] addresses Matrin-3 (Homo sapiens) (UniProt P43243).
In experiment [46] the target is Importin-7 (Homo sapiens) (UniProt O95373).
The target of experiment [47] is EKC/KEOPS complex subunit TPRKB (Homo sapiens) (UniProt Q9Y3C4).

Each structure is given as a SMILES string.
Further: assay method not described here.

Programmed cell death protein 2-like (Homo sapiens), sequence (Q9BRP1 whole entry, the tested form may be a part): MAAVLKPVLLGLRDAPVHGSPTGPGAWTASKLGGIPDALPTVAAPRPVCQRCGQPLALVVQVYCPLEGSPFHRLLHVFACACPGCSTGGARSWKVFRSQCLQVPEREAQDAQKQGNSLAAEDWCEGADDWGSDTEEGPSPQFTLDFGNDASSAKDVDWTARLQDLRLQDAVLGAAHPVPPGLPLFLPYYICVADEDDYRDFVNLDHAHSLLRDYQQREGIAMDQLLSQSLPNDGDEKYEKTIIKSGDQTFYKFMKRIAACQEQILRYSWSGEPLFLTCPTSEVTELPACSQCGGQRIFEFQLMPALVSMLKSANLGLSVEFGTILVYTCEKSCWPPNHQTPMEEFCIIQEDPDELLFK
Transmembrane protein 94 (Homo sapiens), sequence (Q12767 whole entry): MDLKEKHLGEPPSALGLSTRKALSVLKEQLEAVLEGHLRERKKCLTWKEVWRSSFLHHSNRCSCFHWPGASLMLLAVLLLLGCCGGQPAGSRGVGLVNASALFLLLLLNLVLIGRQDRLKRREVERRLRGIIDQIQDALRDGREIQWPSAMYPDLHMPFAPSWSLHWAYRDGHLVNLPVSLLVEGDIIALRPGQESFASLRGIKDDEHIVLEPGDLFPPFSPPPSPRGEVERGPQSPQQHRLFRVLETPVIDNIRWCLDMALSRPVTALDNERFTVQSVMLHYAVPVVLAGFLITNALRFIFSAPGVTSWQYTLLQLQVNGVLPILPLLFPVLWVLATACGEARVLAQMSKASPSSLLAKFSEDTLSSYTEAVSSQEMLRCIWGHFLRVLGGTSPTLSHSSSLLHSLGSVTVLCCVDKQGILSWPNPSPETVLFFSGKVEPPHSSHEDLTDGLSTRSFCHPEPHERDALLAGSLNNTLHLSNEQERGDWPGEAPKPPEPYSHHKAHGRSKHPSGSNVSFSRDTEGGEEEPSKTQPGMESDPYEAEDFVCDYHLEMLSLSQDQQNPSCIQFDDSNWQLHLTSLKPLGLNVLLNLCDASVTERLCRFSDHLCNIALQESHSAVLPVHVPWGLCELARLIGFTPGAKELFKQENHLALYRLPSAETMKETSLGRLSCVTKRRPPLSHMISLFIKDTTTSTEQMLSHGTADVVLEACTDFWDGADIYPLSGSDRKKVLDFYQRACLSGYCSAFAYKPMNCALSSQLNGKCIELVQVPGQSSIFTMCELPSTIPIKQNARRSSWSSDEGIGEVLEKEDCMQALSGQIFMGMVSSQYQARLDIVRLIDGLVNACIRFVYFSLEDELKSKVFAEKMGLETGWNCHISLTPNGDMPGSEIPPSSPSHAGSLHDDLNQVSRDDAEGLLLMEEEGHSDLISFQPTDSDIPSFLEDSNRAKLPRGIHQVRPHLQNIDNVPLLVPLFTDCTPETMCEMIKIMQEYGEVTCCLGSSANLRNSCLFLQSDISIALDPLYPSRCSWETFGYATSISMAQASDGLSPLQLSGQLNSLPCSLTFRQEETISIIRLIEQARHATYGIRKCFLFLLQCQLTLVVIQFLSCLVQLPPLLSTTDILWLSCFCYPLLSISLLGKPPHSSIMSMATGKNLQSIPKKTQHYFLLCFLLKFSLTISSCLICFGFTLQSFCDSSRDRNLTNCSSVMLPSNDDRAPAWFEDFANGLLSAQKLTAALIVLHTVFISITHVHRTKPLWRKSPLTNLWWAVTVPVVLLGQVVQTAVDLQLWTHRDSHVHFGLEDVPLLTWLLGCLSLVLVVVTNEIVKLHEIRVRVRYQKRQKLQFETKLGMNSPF
Dynamin-like GTPase OPA1, mitochondrial (Homo sapiens), sequence (O60313 whole entry): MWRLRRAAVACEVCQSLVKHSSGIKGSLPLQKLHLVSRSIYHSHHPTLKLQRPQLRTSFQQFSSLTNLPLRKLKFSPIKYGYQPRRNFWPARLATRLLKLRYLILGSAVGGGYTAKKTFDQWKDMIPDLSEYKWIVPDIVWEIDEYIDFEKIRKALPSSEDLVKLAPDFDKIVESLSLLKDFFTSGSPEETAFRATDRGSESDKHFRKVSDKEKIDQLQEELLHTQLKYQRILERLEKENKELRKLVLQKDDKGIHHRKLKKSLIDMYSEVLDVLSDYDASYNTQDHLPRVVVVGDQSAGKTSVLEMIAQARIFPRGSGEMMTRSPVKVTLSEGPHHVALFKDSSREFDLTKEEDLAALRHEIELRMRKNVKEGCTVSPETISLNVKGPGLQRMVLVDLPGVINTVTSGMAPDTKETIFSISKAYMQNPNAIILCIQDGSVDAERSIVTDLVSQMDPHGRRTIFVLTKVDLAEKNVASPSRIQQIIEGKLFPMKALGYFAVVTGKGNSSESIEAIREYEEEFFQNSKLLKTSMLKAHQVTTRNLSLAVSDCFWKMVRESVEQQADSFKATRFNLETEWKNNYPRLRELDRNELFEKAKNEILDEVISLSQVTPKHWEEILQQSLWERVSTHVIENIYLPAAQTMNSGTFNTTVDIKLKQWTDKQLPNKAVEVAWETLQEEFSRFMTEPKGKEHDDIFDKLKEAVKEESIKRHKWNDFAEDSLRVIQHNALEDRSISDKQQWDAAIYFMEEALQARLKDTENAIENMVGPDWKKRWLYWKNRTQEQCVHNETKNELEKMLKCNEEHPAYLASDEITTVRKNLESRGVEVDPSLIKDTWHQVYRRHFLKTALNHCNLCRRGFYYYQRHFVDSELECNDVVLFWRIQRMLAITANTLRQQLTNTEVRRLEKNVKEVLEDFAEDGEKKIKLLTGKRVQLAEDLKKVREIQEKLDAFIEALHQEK
Ubiquitin-protein ligase E3A (Homo sapiens), sequence (Q05086 whole entry): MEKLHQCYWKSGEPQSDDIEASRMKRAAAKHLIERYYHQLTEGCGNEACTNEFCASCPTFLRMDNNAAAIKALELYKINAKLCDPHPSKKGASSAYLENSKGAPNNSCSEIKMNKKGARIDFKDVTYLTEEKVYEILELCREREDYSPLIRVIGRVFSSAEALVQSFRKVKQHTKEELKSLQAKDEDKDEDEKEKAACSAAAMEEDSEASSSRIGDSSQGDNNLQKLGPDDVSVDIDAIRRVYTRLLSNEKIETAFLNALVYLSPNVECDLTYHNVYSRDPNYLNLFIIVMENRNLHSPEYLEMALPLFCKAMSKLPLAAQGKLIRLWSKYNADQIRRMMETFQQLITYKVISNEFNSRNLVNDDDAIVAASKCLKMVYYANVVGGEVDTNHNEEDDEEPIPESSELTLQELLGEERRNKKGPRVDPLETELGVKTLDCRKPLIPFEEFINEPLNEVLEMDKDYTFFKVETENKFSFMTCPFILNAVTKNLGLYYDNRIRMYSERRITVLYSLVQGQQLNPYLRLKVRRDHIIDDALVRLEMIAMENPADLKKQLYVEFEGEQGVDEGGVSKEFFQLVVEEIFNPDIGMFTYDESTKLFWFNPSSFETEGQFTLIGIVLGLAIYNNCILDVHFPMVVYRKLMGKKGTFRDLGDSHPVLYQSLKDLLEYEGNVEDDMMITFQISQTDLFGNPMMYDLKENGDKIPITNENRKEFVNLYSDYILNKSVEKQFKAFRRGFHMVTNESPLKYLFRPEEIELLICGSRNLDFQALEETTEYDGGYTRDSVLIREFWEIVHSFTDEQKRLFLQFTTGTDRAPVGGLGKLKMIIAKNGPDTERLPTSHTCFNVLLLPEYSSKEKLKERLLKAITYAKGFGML
Transducin beta-like protein 3 (Homo sapiens), sequence (Q12788 whole entry): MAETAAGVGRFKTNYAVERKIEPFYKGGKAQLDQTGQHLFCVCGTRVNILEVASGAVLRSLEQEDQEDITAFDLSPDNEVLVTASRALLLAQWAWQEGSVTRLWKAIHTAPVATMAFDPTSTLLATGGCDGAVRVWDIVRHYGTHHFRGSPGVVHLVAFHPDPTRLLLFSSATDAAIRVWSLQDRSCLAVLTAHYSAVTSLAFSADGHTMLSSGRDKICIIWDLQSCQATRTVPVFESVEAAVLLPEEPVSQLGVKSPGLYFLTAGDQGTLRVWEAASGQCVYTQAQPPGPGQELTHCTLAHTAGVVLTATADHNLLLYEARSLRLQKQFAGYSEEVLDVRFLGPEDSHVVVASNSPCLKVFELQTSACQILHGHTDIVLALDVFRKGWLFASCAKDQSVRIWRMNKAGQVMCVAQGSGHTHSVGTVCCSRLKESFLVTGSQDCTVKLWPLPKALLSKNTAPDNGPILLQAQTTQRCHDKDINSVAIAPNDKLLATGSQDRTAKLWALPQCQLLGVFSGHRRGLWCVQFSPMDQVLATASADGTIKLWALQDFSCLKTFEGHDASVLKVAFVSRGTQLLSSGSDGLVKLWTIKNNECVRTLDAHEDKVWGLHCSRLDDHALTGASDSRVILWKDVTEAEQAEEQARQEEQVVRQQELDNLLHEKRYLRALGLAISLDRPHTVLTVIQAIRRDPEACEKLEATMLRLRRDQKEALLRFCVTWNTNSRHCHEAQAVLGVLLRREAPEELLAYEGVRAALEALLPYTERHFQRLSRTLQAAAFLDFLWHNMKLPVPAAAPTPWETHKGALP
Tubulin beta-2B chain (Homo sapiens), sequence (Q9BVA1 whole entry): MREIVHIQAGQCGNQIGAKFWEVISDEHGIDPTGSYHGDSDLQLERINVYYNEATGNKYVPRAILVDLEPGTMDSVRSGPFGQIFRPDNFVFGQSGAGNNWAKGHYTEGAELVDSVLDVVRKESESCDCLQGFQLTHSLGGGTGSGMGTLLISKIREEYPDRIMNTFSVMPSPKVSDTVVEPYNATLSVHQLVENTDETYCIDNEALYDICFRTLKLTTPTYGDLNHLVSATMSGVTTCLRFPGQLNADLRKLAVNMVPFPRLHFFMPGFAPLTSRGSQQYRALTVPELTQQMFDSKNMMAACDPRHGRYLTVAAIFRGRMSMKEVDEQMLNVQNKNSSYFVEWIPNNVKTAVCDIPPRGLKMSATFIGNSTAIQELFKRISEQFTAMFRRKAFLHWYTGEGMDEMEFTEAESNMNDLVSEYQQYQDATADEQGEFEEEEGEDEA
BAG family molecular chaperone regulator 2 (Homo sapiens), sequence (O95816 whole entry): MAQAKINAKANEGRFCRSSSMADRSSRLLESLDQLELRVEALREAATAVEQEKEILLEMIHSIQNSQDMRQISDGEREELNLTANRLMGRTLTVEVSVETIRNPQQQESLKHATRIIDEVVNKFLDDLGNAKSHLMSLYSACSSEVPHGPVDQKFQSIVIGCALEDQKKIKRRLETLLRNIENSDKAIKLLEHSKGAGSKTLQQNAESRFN

As to `Cc1ccc(C(=O)Nc2cccc(C(F)(F)F)c2)cc1Nc1nc(-c2cccnc2)nc2c1cnn2C`, the ED50 came to 4700 nM in [1]; 12100 nM in experiment [2]; 4490 nM in [3]; 171 nM in experiment [4]; 22.9 nM in [5]; 2450 nM in experiment [6]. Besides, the ED50 in [7] was determined as 3430 nM; in [8], 91.1 nM; in experiment [9], 657 nM; in experiment [10], 1.57 nM; in [11] it was 55200 nM; in experiment [12], 384 nM. In addition, the ED50 was 1760 nM in [13]; 2930 nM in experiment [14]; 1960 nM in [15]; 18.8 nM in experiment [16]; 887 nM in [17]; 26500 nM in experiment [18]. Also, the ED50 in experiment [19] was determined as 5720 nM; in [20], 68.5 nM; in [21] it was 12400 nM; in [22] it was 5.53 nM; in [23], 163 nM; in [24], 1.71 nM. The ED50 in [25] is 990 nM; in [26] it was 60.3 nM; in experiment [27] it was 30 nM; in experiment [28] it was 27.9 nM; in experiment [29], 6960 nM; in [30], 77.6 nM. In addition, the ED50 came out at 9.82 nM in experiment [31]; 14700 nM in [32]; 1.21 nM in [33]; 20 nM in experiment [34]; 132 nM in experiment [35]; 571 nM in experiment [36]. Further, the ED50 in [37] amounted to 181 nM; in experiment [38], 3.06 nM; in [39] it was 5150 nM.

Regarding `Cc1ccc(C(=O)Nc2cccc(C(F)(F)F)c2)cc1Nc1nc(-c2cccnc2)nc2nn(C)cc12`, the ED50 was 52.4 nM in [40]; 14 nM in experiment [41]; 139000 nM in experiment [42]; 72.9 nM in experiment [43]; 5.85 nM in experiment [44]; 22.7 nM in [45]. Further, the ED50 in experiment [46] was determined as 18.1 nM; in [47] it was 550 nM.
